Laboratory results published in patent US8124964B2, “Field-effect transistor” (Nippon Kayaku Kabushiki Kaisha, priority 2006, dated 2012).

Columns and labels:
[1] = Solubility Test 2: solubility to chloroform; type: physicochemical; settings: room temperature, visually checked
Procedure: (§1) To confirm solubility to solvent, the solubility of a test compound to chloroform was measured. A test compound was added to chloroform little by little at room temperature and stirred. The solubility was determined by visually checking whether it was dissolved or not. When the test compound remained undissolved, the total amount by mass of the test compound added immediately before the moment was calculated and the solubility to chloroform was expressed in terms of % by mass.
After a chloroform suspension solution of the compound represented by the formula (101) above was prepared, insoluble solid substances were filtered off to obtain a filtrate. The solubility of the compound represented by the formula (101) above to the filtrate was 0.02% by mass.

[2] = Solubility Test 1: solubility to toluene; type: physicochemical; settings: for Solubility (% by mass): to toluene, room temperature, visually checked
Procedure: as §1, with “solvent, which is one of the important characteristics of a semiconductor manufactured by coating,” for “solvent,”, “toluene” for “chloroform”
The “Compound No.” of Table 2 is the same as defined in Table 1. Furthermore, in Comparative Example 1, the solubility of Compound 16 of Example 15 disclosed in Patent Document 3 to toluene was calculated by the same test method as above. The structural formula of the compound used in Comparative Example 1 is shown in the formula (101) below.

Row | Solubility (% by mass) [1] [% by mass] | Solubility (% by mass) [2] | solubility to toluene relative to the aryl derivative of Comparative Example 1 [2] | Solubility (% by mass) ([2]; listed as formula (101)) | SMILES
1 | 5.4 | 1.5 % by mass | at least 50 fold | – | CCCCCCCCc1ccc2c(c1)sc1c3ccc(CCCCCCCC)cc3sc21 [Compound No. 16, 2,7-Dioctyl[1]benzothieno[3,2-b][1]benzothiophene]
2 | 0.02 | 0.01 or less % by mass | – | not more than 0.01 % by mass | c1ccc(-c2ccc3c(c2)sc2c4ccc(-c5ccccc5)cc4sc32)cc1 [Comparative Example 1, reference compound]
3 | 0.6 | 0.2 % by mass | ≥ 20 fold | – | CCCCCCCCCCCCc1ccc2c(c1)sc1c3ccc(CCCCCCCCCCCC)cc3sc21 [Compound No. 20, 2,7-Didodecyl[1]benzothieno[3,2-b][1]benzothiophene]
